Patent publication US11124479B2, “Oligopyrroles as antagonists of islet amyloid polypeptide oligomerization” (New York University, priority 2017, dated 2021)

What was measured:
[1] = target: T1, islet amyloid polypeptide (IAPP) (Homo sapiens, UniProt P10997); test: ThT-based kinetic assay of IAPP fibrillation; assay type: biochemical; conditions: for inhibition of IAPP fibrillation (in words) / relative t50 of IAPP fibrillation versus control reaction: 15 μM IAPP, equimolar ratio; for inhibition of IAPP fibrillation (in words): FIG. 2C; for inhibition capacity towards IAPP fibrillation (in words): ThT assays under our conditions
T1 construct: IAPP is a 37 residue neuropancreatic hormone peptide; purchased Anaspec (Fremont, Calif.)
T1 sequence (P10997 34-70 limits assumed): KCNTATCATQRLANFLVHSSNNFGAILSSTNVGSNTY
Text: The aggregation kinetics of IAPP was probed using an exogenous reporter, Thioflavin T (ThT), which quantifies the amount of fibers in solution without perturbing the aggregation kinetics of IAPP (see Wolfe, L. S.; Calabrese, M. F.; Nath, A.; Blaho, D. V.; Miranker, A. D.; Xiong, Y. Proc. Natl. Acad. Sci. U.S.A. 2010, 107, 16863-16868; Levine, H. Protein Sci. 1993, 2, 404-410). […] The kinetics of IAPP fibrillation was quantified using the reaction midpoint, t50, which is the time required to reach 50% fluorescence in the fibrillation reaction (FIG. 8).
Kinetic assays were conducted on a FlexStation 3 Multi-Mode Microplate reader from Molecular Devices (Sunnyvale, Calif.). Experiments were conducted in triplicate in a 96-well plate with a final volume of 200 μL per well. Every measurement was an average of 50 readings. The aggregation of IAPP was initiated by its addition from a stock solution (1 mM in DMSO) to phosphate buffer. The stoichiometry ratio for ThT to IAPP was 0.5:1. Peptide aggregation was monitored by ThT fluorescence (λex=445 nm and λem=485 nm). The blank sample contained all the components of the peptide samples except peptide. The sample data were processed by subtracting the blank and renormalizing the fluorescence intensity by setting the maximum value to 1.
Kinetic assays in the presence of the compounds of the invention were conducted under the same conditions. Small molecules were added from a stock solution (1 mM or 10 mM in DMSO) to keep the final concentration of DMSO less than 1.0% (v/v). Small molecules were added to the wells with ThT and buffer and mixed gently with a pipette before adding IAPP. To keep the conditions identical, an equal amount of DMSO was added to the wells with IAPP only reactions. For the aggregation kinetics of Aβ42, the peptide was dissolved in 1N NaOH (0.5-1 mM) and vortexed for 2 min. to ensure the complete solubility. The aggregation of 3 μM Aβ42 was initiated by addition of peptide from a stock solution (in 1 N NaOH, 0.5-1 mM) to phosphate buffer.
Kinetic profiles were processed using Origin (version 9.1). Kinetic curves were fit using the built-in sigmoidal fit. Each run was fit independently to extract the t50 (time required to reach 50% of the maximum fluorescence intensity). Error bars represent standard deviations from the mean of at least three independent experiments.
The membrane model system selected for the amyloid assays is a mixture of DOPG (dioleoylphosphatidylglycerol) and DOPC (dioleoylphosphatidylcholine) at 3:7 molar ratio, which mimics physiological conditions (Ono, K.; Condron, M. M.; Teplow, D. B. Proc. Natl. Acad. Sci. U.S.A. 2009, 106, 14745-14750). The lipid catalyzed aggregation of IAPP was initiated by adding freshly prepared 15 μM IAPP (1 mM stock solution in DMSO) to the phosphate buffer (50 mM NaPi, 150 mM KCl, pH 7.4) containing 15 μM ThT and 750 μM of unilamellar liposomes (LUVs, DOPG:DOPC, 3:7, d=100 nm).

[2] = target: T2, IAPP-induced lipid membrane leakage (Homo sapiens, UniProt P10997); test: Fluorescein-based liposome leakage assay; assay type: biochemical; conditions: 4 μM IAPP, equimolar ratio
T2 construct: IAPP is a 37 residue neuropancreatic hormone peptide; purchased Anaspec (Fremont, Calif.)
T2 sequence (P10997 34-70 limits assumed): T1 sequence (P10997 34-70 limits assumed)
Text: Colocalization of IAPP at the mitochondrial membrane and the subsequent membrane poration is considered to be one of the potential contributors to β-cell toxicity. Therefore, a liposome leakage assay could serve as a surrogate marker for IAPP induced cytotoxicity (see Last, N. B.; Miranker, A. D. Proc. Natl. Acad. Sci. U.S.A. 2013, 110, 6382-6387; and Last, N. B.; Rhoades, E.; Miranker, A. D. Proc. Natl. Acad. Sci. U.S.A. 2011, 108, 9460-9465). A previously reported fluorescein-based liposome leakage assay was employed to test the effect of ADH-101 on membrane associated α-helical intermediates of IAPP. Briefly, fluorescein-dextran conjugate (MW=70 kDa) was encapsulated in unilamaller extruded lipid vesicles (DOPG:DOPC, 3:7, d=100 nm). The size of fluorescein-dextran conjugate allows it to stay inside the lipid vesicles during IAPP mediated membrane poration. The leakage kinetics was probed by the quenching of fluorescence using a fluorescent quencher, DPX (p-xylene-bis-pyridinium […]). The kinetic profiles of leakage are single exponential with a decrease in fluorescence as a function of time. The leakage reaction was initiated by introducing 200 μM liposome into a solution of 4 μM IAPP and 6 mM of DPX. The introduction of the excess ionic concentration by DPX was counterbalanced by adjusting the buffer concentration. The kinetics of the leakage mediated by IAPP yielded a single exponential profile with a leakage rate of 7.3±1.1×10^−3 s^−1 (FIG. 5A).
The kinetics of liposome leakage induced by IAPP was monitored on QuantaMaster C-61 fluorescence spectrometer (Photon Technology International, Edison, N.J.) at 25° C. […] The stock solution of IAPP used in the measurements was kept in water at a concentration of 1 mM. The stock solution of water soluble quencher, DPX (p-xylene-bis-pyridinium bromide) was prepared in buffer (100 mM KCl, 50 mM NaPi, pH 7.4) at a concentration of 100 mM. The small molecules used in the leakage assay were dissolved in DMSO with a concentration range of 10-20 mM. The final concentration of dye encapsulating liposome, DPX, human IAPP, and small molecules were 200, 6000, 4, and 4 μM respectively. The final buffer concentration was corrected using higher concentration of buffer to keep the osmolality balanced. […] To determine the leakage rate constant, first the fluorescence was normalized and corrected by subtracting it from normalized fluorescence of control reaction. The corrected fluorescence was fit using equation given below (using Origin 9.1). All the experiments were performed in triplicate and the error values presented are standard deviations. a*exp(−b*x)+c (2) a=amplitude from 100% unleaked to 0% leaked c=final fraction of unleaked liposome y=change in fluorescence b=leakage rate constant

Partition coefficient = assay type: physicochemical
[3] = lipid catalyzed (750 μM LUVs, DOPG:DOPC 3:7)

## CCOC(=O)c1cc([N+](=O)[O-])cn1CC(C)C [ADH-113]
[1]
  inhibition of IAPP fibrillation (in words): ineffective

## CCOC(=O)c1cc([N+](=O)[O-])cn1CCC(=O)O [ADH-117]
[1]
  inhibition of IAPP fibrillation (in words): ineffective

## COc1cc(/C=C/C(=O)CC(=O)/C=C/c2ccc(O)c(OC)c2)ccc1O [Curcumin]
[1]
  inhibition capacity towards IAPP fibrillation (in words): moderate inhibition capacity

## CC1=C/C(=C(\c2ccc(N)c(S(=O)(=O)[O-])c2)c2ccc(N)c(S(=O)(=O)O)c2)C=C(S(=O)(=O)[O-])C1=N.[Na+].[Na+] [AF, Acid fuchsin, reference compound]
[2]
  effect on IAPP induced liposome leakage (in words): unable to effect
[1]
  inhibition capacity towards IAPP fibrillation (in words): moderate inhibition capacity

## CCOC(=O)c1cc(NC(=O)c2cc(NC(=O)c3cc([N+](=O)[O-])cn3CCCc3ccccc3)cn2CC(C)C)cn1CCC(=O)O [ADH-120]
[1]
  antagonist of oligomerization, fibrillation, and/or aggregation of IAPP (in words): effective antagonist

## COC(=O)c1ccc(NC(=O)c2ccc(NC(=O)c3ccc([N+](=O)[O-])c(OCC(=O)O)n3)c(OCC(C)C)n2)c(OCC(=O)O)n1 [ADM-11, reference compound]
[1]; [3]
  relative t50 of IAPP fibrillation versus control reaction: 1.9 fold
Partition coefficient
  logP: -0.8

## CCOC(=O)c1cc(NC(=O)c2cc(NC(=O)c3cc([N+](=O)[O-])cn3CC(C)C)cn2CC(C)C)cn1CC(C)C [ADH-105]
[1]; de novo / lipid free
  relative t50 of IAPP fibrillation versus control reaction: 2.6 fold
[1]; [3]
  relative t50 of IAPP fibrillation versus control reaction: 1.5 fold

## O=C(O[C@@H]1Cc2c(O)cc(O)cc2O[C@@H]1c1cc(O)c(O)c(O)c1)c1cc(O)c(O)c(O)c1 [EGCG, reference compound]
[2]
  effect on IAPP induced liposome leakage (in words): unable to effect
[1]
  inhibition capacity towards IAPP fibrillation (in words): moderate inhibition capacity

## COC(=O)c1ccc(NC(=O)c2ccc(NC(=O)c3ccc([N+](=O)[O-])c(OCC(=O)O)n3)c(OCC(C)C)n2)c(OCC(C)C)n1 [ADH-201, reference compound]
[1]; [3]
  relative t50 of IAPP fibrillation versus control reaction: 1.4 fold
